Test results from patent EP4592276A1, “NOVEL ACY[…] OF PSILOCIN AND RELATED 4-HYDROXYT[…] BY AN EFFICIENT […] APPROACH” (Universität Heidelberg, priority 2024, dated 2025).
Values joined by “and” are separate entries in the source; they are usually repeats but may differ in a detail not shown here. Equal values may be shown once. Where a name gives a salt, the structure may show the parent alone.

How the values were obtained:
[1] = Passive membrane permeation assay (PAMPA); assay type: in vitro ADME; conditions: pre-coated PAMPA plate, PBS pH 7.4, 200 µM, 25 °C; for R (mass retention) / Pe: 5 h; for Pe / Papp at 5 h, 200 µM: mean ± standard deviation; for Papp at 5 h, 200 µM: read-out: Pe
Method: The passive membrane permeability was evaluated with a pre-coated PAMPA plate system (BD Gentest, BD Bioscience, Germany) following the guidelines of the manufacturer and a previous literature report (cf. Kühl et al. Eur. J. Med. Chem. 2022, 240, 114585). Phosphate-buffered saline (PBS) pH 7.4 (Sigma-Aldrich, Germany) was used for all experiments. Analyte concentrations were determined on a Jasco HPLC system equipped with a UV detector and an RP-18 column (Chromolith® Performance RP-18e, 100x4.6 mm) using one of the gradients listed in Table 2. For all samples, the injection volume was 40 µl. Table 2: HPLC settings for the analysis of PAMPA samples.
Prior to performing the assay, the PAMPA plate was warmed to room temperature for 0.5 h. In the donor plate, 300 µL of the 200 µM compound solutions in PBS (4 % dimethyl sulfoxide (DMSO)) were dispensed in triplicate, and in the acceptor plate, 200 µL of PBS buffer were added to all wells. The plates were combined, and the system was incubated at 25 °C for 5 h. Upon completion of the incubation, donor and acceptor plate were separated. The wells were homogeneously mixed with a pipette, and a 100 µl sample of each donor and acceptor well was transferred to 96 well U-bottom polypropylene plates (Greiner Bio-One, Germany) for quantitative HPLC analysis.

[2] = test system: HuH-7 cells; assay: Cell viability in HuH-7 cells (CellTiter-Blue); assay type: cell-based, human; conditions: 50 µM, mean of triplicates ± standard deviation
Method: In order to assess cytotoxic effects of compounds in cell culture, HuH-7 cells were incubated in presence of these compounds in a 96-well plate for 2 h or 24 h. In order to generate a calibration curve for cell viability, a serial dilution (1:2 dilution series) of cells was seeded into control wells. Measurement of cell viability is based on the assay development using CellTiter-Blue reagent (Resazurin, blue color), which is reduced to resofurin (pink color) by viable cells.
Prior to performing the assay, a 96-well assay plate (F-bottom, transparent, Greiner) containing HuH-7 cells (20,000 cells per well) in culture medium was prepared. […] CellTiter-Blue reagent (1-2 mL) was diluted with cell culture medium (10 mL) in a Falcon tube and prewarmed to 37 °C. The 96-well plate was removed from the incubator, the medium aspirated using a vacuum pump and 100 µL of diluted CellTiter-Blue reagent was added to each well.

[3] = Drug release kinetics (prodrug cleavage) in human blood plasma; assay type: in vitro ADME; conditions: 37 °C; for half-life: 10 % human plasma in PBS, 50 µM; for half-life at 50 µM: 100 % human plasma
Method: Pooled human blood plasma (Biowest, France) and sterile Dulbecco's phosphate buffered saline (PBS) pH 7.3 (Sigma-Aldrich, Germany) were used for all experiments. The blood plasma was aliquoted upon receipt and stored at -20 °C. 10 % solutions were prepared by thawing a plasma aliquot at 2-8 °C, distributing it into plastic vials and diluting with the appropriate volume of sterile PBS. The 10 % and 100 % plasma aliquots were stored at -20 °C and thawed at 2-8 °C directly before the assay was performed. In a thermoblock, a plasma aliquot and 10 µl of a 5 mM prodrug solution in DMSO were prewarmed to 37 °C for 10 min in separate plastic vials. Then, 1000 µl of the prewarmed plasma sample was added to the prodrug solution, and 9×100 µl samples were withdrawn at appropriate time intervals. The enzymatic reaction was quenched by immediate mixing of the samples (100 µl) with acetonitrile (200 µl). Blank samples were prepared by mixing 10 % or 100 % plasma (100 µl) with acetonitrile (200 µl), respectively. Samples of the initial reaction mixture were prepared by adding the 5 mM prodrug solution (1 µl) to a blank sample.
Centrifugation (13,000 rpm, 3 min) of the quenched samples afforded clear supernatants which were transferred to 96 well U-bottom polypropylene plates (Greiner Bio-One, Germany). Analyte quantifications were performed on a Jasco HPLC system equipped with a UV detector and an RP-18 column (Chromolith® Performance RP-18e, 100x4.6 mm) using one of the gradients listed in Table 3. Prodrug degradation was monitored using undiluted supernatant and a 10 min chromatographic method. […] For all samples, the injection volume was 40 µL and the flow was set to 1.0 mL/min. […] Table 3: HPLC settings for quantitative analysis of plasma samples.

[4] = Prodrug stability in human whole saliva; assay type: in vitro ADME; conditions: mean of fresh samples of three individuals, classified into three groups; for half-life at 50 µM: 37 °C
Method: Freshly collected saliva and 5 mM stock solutions of the analytes in DMSO were prewarmed to 37 °C for 10 min. Then, 700 µl prewarmed saliva was added to 7 µl of the prodrug stock, and the mixture was incubated at 37 °C. Samples (100 µL) were taken at selected time points (0, 10, 20, 40, 60 min; 2 h or 24 h) and immediately quenched with acetonitrile (200 µl). Blank samples were prepared by mixing saliva (100 µl) with acetonitrile (200 µl). Centrifugation (3,000 rpm, 5 min) of the quenched samples afforded clear supernatants which were transferred to 96 well U-bottom polypropylene plates (Greiner Bio-One, Germany). Analyte quantifications were performed on a Jasco HPLC system equipped with a UV detector and an RP-18 column (Chromolith® Performance RP-18e, 100x4.6 mm) using the gradients listed in Table 4. Samples that gave rise to asymmetric peaks inadequate for quantification were diluted (1:1) with H2O (+0.1 % TFA). The injection volume was 40 µl and the flow was set to 1.0 mL/min. UV detection was performed at 286 nm. […] Table 4: HPLC settings for quantitative analysis of saliva samples.

[5] = Stability of prodrugs in methanol (1H NMR); assay type: physicochemical; conditions: CD3OD, ambient temperature, within 18 days
From the text: The stability of the exemplary carboxylic ester 8b in methanol was studied by dissolving a few milligrams of the fumarate ester in CD3OD at ambient temperature and measuring ^1H NMR spectra in appropriate time intervals.

[6] = Equilibrium solubility (shake-flask); conditions: 35.5 °C, pH 6.8, aqueous buffer, thermodynamic from solid
Method: For each reported solubility result, one shake-flask experiment was carried out unless otherwise stated. Measurements at pH 2.0 were performed in 0.01 M HCl. Measurements at pH 6.8 were performed in a KH2PO4/K2HPO4 buffer with an ionic strength of 70 mM. For each experiment, the solid, HPLC-purified sample (1.7 - 25 mg) was suspended in 250 - 500 µL of the aqueous buffer in a glass vial. The solution containing solid excess of the sample was then capped and shaken at 220 rpm in an Infors HT Minitron incubator at a defined temperature for 6 hours. Three aliquots (3 × 70 µL) were removed with a fine pipette from each shake-flask experiment, and the saturated solution in these aliquots was separated from precipitate by centrifugation (10000 rpm, 5 min) at the assay temperature. […] The reported values are the mean of three measured concentrations. The error was estimated based on the standard deviation of the three measurements and the uncertainty of the calibration curve. Table 8: Equilibrium solubility of selected prodrugs along with references.

SMILES	R (mass retention) [1] [%]	Pe [1]	Papp at 5 h, 200 µM [1] [×10⁻⁶ cm/s]	Cell Viability in HuH7 at 50 µM, 2 h Incubation [2] [%]	Cell Viability in HuH7 at 50 µM, 24 h Incubation [2] [%]	half-life [3] [min]	half-life at 50 µM [4] [min]	initial amount of ester degraded [5]	half-life at 50 µM [3] [min]	t1/2 at 37 °C and [prodrug]0 = 50 µM, Human Saliva [4] [min]	solubility thermodynamic at 6 h [6]
CCCC(=O)Oc1cccc2[nH]cc(CCN(C)CC)c12 [Compound 8b, 4-Butyryloxy-N-ethyl-N-methyltryptammonium fumarate]	4	at least 8 10^-6 cm/s	9.2 ± 0.8	88.1 ± 6.0	83.7 ± 1.0	0.64 ± 0.04	15 to 60	approximately 50%	–	–	–
CCN(C)CCc1c[nH]c2cccc(OC(=O)C(C)(C)C)c12 [Compound 8f, 4-Pivaloyloxy-N-ethyl-N-methyltryptammonium fumarate]	-2	–	10.7 ± 0.7	80.4 ± 2.1	79.4 ± 2.1	–	> 60	–	> 60	> 60	–
CCN(C)CCc1c[nH]c2cccc(OC(=O)c3ccccc3)c12 [Compound 8i, 4-Benzoyloxy-N-ethyl-N-methyltryptammonium fumarate]	6	–	9.4 ± 0.8	95.0 ± 3.8	80.1 ± 1.7	1.5 ± 0.5	15 to 60	–	–	–	–
CN(C)CCc1c[nH]c2cccc(OCOC(=O)C(C)(C)C)c12 [Compound 15a, 4-Pivaloyloxymethyloxy-N,N-dimethyltryptammonium fumarate]	4	9.1 ± 0.5 10^-6 cm/s	–	61.6 ± 6.0	61.6 ±18.4	–	15 to 60	–	> 300	–	–
CCN(C)CCc1c[nH]c2cccc(OCOC(=O)C(C)(C)C)c12 [Compound 15c, 4-Pivaloyloxymethyloxy-N-ethyl-N-methyltryptammonium fumarate]	2	9.7 ± 0.6 10^-6 cm/s	–	48.3 ± 16.1	47.1 ± 10.4	–	< 15	–	> 300	–	–
CN(C)CCc1c[nH]c2cccc(OC(=O)C3CC3)c12 [Compound 19c, 4-(cyclopropanecarbonyloxy)-N,N-dimethyltryptamine]	–	–	–	–	–	–	–	–	–	–	32600 µM and 8900 µg/mL
